“Also recorded” adds a separate entry of the source.
How the values were obtained:
[1] = Handling in the presence of water (Example 8, methanol/water 60/40), form checked by XRPD; type: physicochemical; conditions: handled in the presence of water, 40% water (Example 8)
Protocol: 20.0 mg of amorphous Compound 1 was solid dosed in a 1.8 mL vial and 100 μL of a methanol/water mixture (60/40 (v/v)) was added at ambient temperature. The solution was subjected to a temperature profile of heating and cooling between 50° C. and 5° C. for three cycles, each heating cycle was at 10° C./hr while the cooling cycles were at −20° C./hr, −10° C./hr and −5° C./hr, for each cycle, respectively, finishing at ambient temperature. During the entire experiment the mixture was stirred at 30 rpm using a magnetic stirrer and a TEFLON®-coated magnetic stirring bar with dimensions 7mm in length and 2 mm in width.
Upon completion of the thermo-profile, the solid was collected by centrifugation (3000 rpm for 10 minutes) followed by solvent mixture removal by Pasteur pipette and dried under ambient conditions for one hour, before being analyzed by XRPD.

[2] = Accelerated aging analysis by XRPD (Method J); type: physicochemical; conditions: 40° C. and 75% relative humidity for 48 hours (2 days)
Protocol: Samples collected from the crystallization conditions were subjected, as is, to accelerated aging conditions of 40° C. and 75% relative humidity for 48 hours, via standard methods and analyzed by XRPD.
Dry solid samples from Examples 1 and 2, were transferred into a boron-glass capillary with 0.3 mm outer diameter. The capillary was mounted on the goniometer head and placed in the D8 Advance Bruker-AXS Diffractometer equipped with solid state LynxEye detector. The capillary was spinning during data recording, at 15 rpm. The XRPD platform was calibrated using Silver Behenate for the long d-spacings and Corundum for the short d spacings.
Data collection for Compound 1 Form A and Compound 1 Form B, were carried out, in transmission mode, at ambient conditions (˜23° C. and ˜100 kPa) using monochromatic CuKα1 radiation (1.54056 Å) in the 2Θ region between 4° and 45°, with an exposure time of 90 s for each frame and 0.016° increments. No additional corrections were made during data collection.

- Stability to exposure to water / hydrate formation (XRPD) [1]: resistant to hydrate formation
SMILES: C=C1CC[C@H]2[C@H](CN)[C@@H]([C@@]3(C)CC[C@H](O)C[C@@H]3CO)CC[C@]12C.CC(=O)O [Compound 1 Form A, acetate salt of (1S,3S,4R)-4-((3aS,4R,5S,7aS)-4-(aminomethyl)-7a-methyl-1-methyleneoctahydro-1H-inden-5-yl)-3-(hydroxymethyl)-4-methylcyclohexanol]
- Solid form stability after accelerated aging (XRPD diffractogram versus FIG. 2) [2]: equivalent to FIG. 2; also recorded: without converting to another form

Source: patent US20180290964A1, “CRYSTALLINE SOLID FORMS OF THE ACETATE SALT OF (1S,3S,4R)-4-((3AS,4R,5S,7AS)-4-(AMINOMETHYL)-7A-METHYL-1-METHYLENEOCTAHYDRO-1H-INDEN-5-YL)-3-(HYDROXYMETHYL)-4-METHYLCYCLOHEXANOL” (Aquinox Pharmaceuticals (Canada) Inc., priority 2015, published 2018)
